The test system of the assay is L1210 leukemia ip in BDF1 mice, survival T/C. In words: NCI In Vivo Anticancer Drug Screen. Data for tumor model L1210 Leukemia (intraperitoneal) in B6D2F1 (BDF1) mice. As to conditions: endpoint: mean survival time, higher = longer survival. A digest of the protocol: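 Antitumor effect is assessed in tumor-bearing animals. Survival in the compound arm is compared with a vehicle-dosed control arm and expressed as their quotient.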

[1] abbreviates: dose: 100.0 mg/kg/injection, schedule: Q01DX009 (ip), vehicle: Klucel (hydroxypropylcellulose) (HPC).
[2] abbreviates: dose: 200.0 mg/kg/injection, schedule: Q01DX009 (ip), vehicle: Klucel (hydroxypropylcellulose) (HPC).
Setting [3] is: dose: 400.0 mg/kg/injection, schedule: Q01DX009 (ip), vehicle: Klucel (hydroxypropylcellulose) (HPC).
[4] abbreviates: dose: 100.0 mg/kg/injection, schedule: Q04DX003 (ip), vehicle: Klucel (hydroxypropylcellulose) (HPC).
Setting [5] is: dose: 200.0 mg/kg/injection, schedule: Q04DX003 (ip), vehicle: Klucel (hydroxypropylcellulose) (HPC).
Setting [6] is: dose: 400.0 mg/kg/injection, schedule: Q04DX003 (ip), vehicle: Klucel (hydroxypropylcellulose) (HPC).
Setting [7] is: dose: 50.0 mg/kg/injection, schedule: Q01DX009 (ip), vehicle: Klucel (hydroxypropylcellulose) (HPC).
[8] abbreviates: dose: 100.0 mg/kg/injection, schedule: Q01DX001 (ip), vehicle: saline.
[9] abbreviates: dose: 200.0 mg/kg/injection, schedule: Q01DX001 (ip), vehicle: saline.
The mark [10] stands for this setting: dose: 400.0 mg/kg/injection, schedule: Q01DX001 (ip), vehicle: saline.
Where [11] appears, read: dose: 100.0 mg/kg/injection, schedule: Q01DX001 (ip), vehicle: Klucel (hydroxypropylcellulose) (HPC).
[12] abbreviates: dose: 200.0 mg/kg/injection, schedule: Q01DX001 (ip), vehicle: Klucel (hydroxypropylcellulose) (HPC).
[13] abbreviates: dose: 400.0 mg/kg/injection, schedule: Q01DX001 (ip), vehicle: Klucel (hydroxypropylcellulose) (HPC).
Where [14] appears, read: dose: 100.0 mg/kg/injection, schedule: Q04DX002 (ip), vehicle: Klucel (hydroxypropylcellulose) (HPC).
[15] abbreviates: dose: 200.0 mg/kg/injection, schedule: Q04DX002 (ip), vehicle: Klucel (hydroxypropylcellulose) (HPC).
Setting [16] is: dose: 400.0 mg/kg/injection, schedule: Q04DX002 (ip), vehicle: Klucel (hydroxypropylcellulose) (HPC).

“And” between values parts separate entries of the source, which are not always exact repeats. Identical values can stand only once. Inconclusive results and toxic doses are left out.

Turning to `O=c1[nH]c2sccc2c(=O)n1OS(=O)(=O)c1ccccc1`, the T/C by setting is: under setting [1], 105 % of control; under setting [2], 122 % of control; under setting [3], 93 % of control.
As to `CCS(=O)(=O)CC(C)O` (stereo not drawn), the T/C (dose: 100.0 mg/kg/injection, schedule: Q01DX009 (ip), vehicle: saline) was 90 % of control; the T/C (dose: 100.0 mg/kg/injection, schedule: Q04DX002 (ip), vehicle: saline) is 101 % of control; the T/C (dose: 200.0 mg/kg/injection, schedule: Q01DX009 (ip), vehicle: saline) was 93 % of control; the T/C (dose: 400.0 mg/kg/injection, schedule: Q01DX009 (ip), vehicle: saline) was 104 % of control; the T/C (dose: 400.0 mg/kg/injection, schedule: Q04DX002 (ip), vehicle: saline) is 108 % of control.
With `CCCCCCCCCCCC[N+](CCO)(CCO)Cc1ccccc1`, the T/C reads like this: (dose: 3.12 mg/kg/injection, schedule: Q01DX009 (ip), vehicle: saline) 96 % of control; (dose: 6.25 mg/kg/injection, schedule: Q01DX009 (ip), vehicle: saline) 98 % of control; (dose: 12.5 mg/kg/injection, schedule: Q04DX003 (ip), vehicle: saline) 88 % of control.
`Cc1cccc(Cl)c1NC(=O)Oc1ccc2c(C)cc(=O)oc2c1`: the T/C runs as follows: under setting [1], 102 % of control; under setting [2], 100 % of control; under setting [3], 87 % of control.
`COC(=O)CCC#CC#CCCC(=O)OC`: the T/C runs as follows: under setting [1], 97 % of control; under setting [4], 90 % of control; under setting [2], 102 % of control; under setting [5], 95 % of control; under setting [3], 108 % of control; under setting [6], 90 % of control.
As for `O=[N+]([O-])CC(C[N+](=O)[O-])C(F)(F)C(F)(F)C(F)(F)F`, the T/C (dose: 100.0 mg/kg/injection, schedule: Q01DX001 (ip), vehicle: other) is 101 % of control.
Consider `COC(C#N)(Cc1ccccc1)Cc1ccccc1`, for which the T/C by setting is: (dose: 75.0 mg/kg/injection, schedule: Q01DX001 (ip), vehicle: other) 92 % of control; (dose: 150.0 mg/kg/injection, schedule: Q01DX001 (ip), vehicle: other) 95 % of control.
Turning to `CCc1cc(C)cc(OC(=O)Nc2ccccc2)c1`, the T/C by setting is: (dose: 100.0 mg/kg/injection, schedule: Q01DX009 (ip), vehicle: saline with Tween-80) 87 % of control; (dose: 100.0 mg/kg/injection, schedule: Q04DX003 (ip), vehicle: saline with Tween-80) 93 % of control; (dose: 200.0 mg/kg/injection, schedule: Q01DX009 (ip), vehicle: saline with Tween-80) 88 % of control; (dose: 200.0 mg/kg/injection, schedule: Q04DX003 (ip), vehicle: saline with Tween-80) 93 % of control; (dose: 400.0 mg/kg/injection, schedule: Q01DX009 (ip), vehicle: saline with Tween-80) 92 % of control.
For `Cc1cnc2cc(Cl)ccc2n1`, the T/C by setting is: under setting [7], 94 % of control; under setting [1], 93 % of control; under setting [4], 102 % of control; under setting [2], 107 % of control; under setting [5], 96 % of control.
Regarding `O=[N+]([O-])c1ccc(NN(c2ccccc2)c2ccccc2)c([N+](=O)[O-])c1`, the T/C by setting is: under setting [4], 98 % of control; under setting [5], 97 % of control; under setting [6], 90 % of control.
Regarding `C=CCc1ccccc1C`, the T/C runs as follows: under setting [8], 106 % of control; under setting [9], 102 % of control; under setting [10], 101 % of control.
Consider `Cc1ncc(CO)c2c1OC(C)(C)OC2`, for which the T/C (dose: 50.0 mg/kg/injection, schedule: Q01DX001 (ip), vehicle: saline) is 97 % of control; the T/C under setting [8] is 100 % of control; the T/C under setting [9] is 103 % of control; the T/C under setting [10] is 100 % of control.
Consider `COC(=O)C1OC(n2cnc3c(N)ncnc32)C2OC(C)(C)OC12` (stereo not drawn), for which the T/C by setting is: (dose: 100.0 mg/kg/injection, schedule: Q01DX005 (ip), vehicle: saline) 102 % of control; (dose: 200.0 mg/kg/injection, schedule: Q01DX005 (ip), vehicle: saline) 104 % of control.
As for `Nc1ccc2ccc(O)cc2c1`, the T/C (dose: 200.0 mg/kg/injection, schedule: Q04DX003 (ip), vehicle: saline) was 121 % of control.
With `O=S(=O)(ON/N=C/c1cc2ccccc2c2ccccc12)c1ccccc1`, the T/C by setting is: (dose: 75.0 mg/kg/injection, schedule: Q01DX009 (ip), vehicle: Klucel (hydroxypropylcellulose) (HPC)) 96 % of control; (dose: 150.0 mg/kg/injection, schedule: Q01DX009 (ip), vehicle: Klucel (hydroxypropylcellulose) (HPC)) 96 % of control; (dose: 300.0 mg/kg/injection, schedule: Q01DX009 (ip), vehicle: Klucel (hydroxypropylcellulose) (HPC)) 98 % of control.
In the case of `COC(=O)C1C(=O)C(C(=O)OC)C2C(C(=O)OC)C(=O)C(C(=O)OC)C12` (stereo not drawn), the T/C is, setting by setting: under setting [11], 104 % of control; under setting [1], 93 % of control; under setting [4], 97 % of control; under setting [12], 101 % of control; under setting [2], 95 % of control; under setting [5], 96 % of control. For the same compound, the T/C under setting [13] is 103 % of control, the T/C under setting [3] was 98 % of control and the T/C under setting [6] is 102 % of control.
For the compound `c1ccc(P(N2CCOCC2)N2CCOCC2)cc1`, the T/C (dose: 100.0 mg/kg/injection, schedule: Q04DX002 (ip), vehicle: saline with Tween-80) is 93 % of control; the T/C (dose: 200.0 mg/kg/injection, schedule: Q04DX002 (ip), vehicle: saline with Tween-80) is 97 % of control; the T/C (dose: 400.0 mg/kg/injection, schedule: Q04DX002 (ip), vehicle: saline with Tween-80) was 97 % of control.
With `CCOC(=O)Nc1cc(Cl)ccc1C`, the T/C was 101 % of control under setting [11]; 102 % of control under setting [1]; 97 % of control and 100 % of control under setting [14]; 103 % of control under setting [4]; 102 % of control under setting [12]; 102 % of control under setting [2]. The T/C is 100 % of control and 104 % of control under setting [15]; 107 % of control under setting [5]; 111 % of control under setting [13]; 96 % of control under setting [3]; 103 % of control and 110 % of control under setting [16]; 96 % of control under setting [6].
`CC(Cc1ccccc1)NC(=O)NCCCl` (stereo not drawn): the T/C (dose: 12.5 mg/kg/injection, schedule: Q01DX009 (ip), vehicle: Klucel (hydroxypropylcellulose) (HPC)) was 101 % of control; the T/C (dose: 25.0 mg/kg/injection, schedule: Q01DX009 (ip), vehicle: Klucel (hydroxypropylcellulose) (HPC)) was 101 % of control; the T/C under setting [7] was 90 % of control; the T/C under setting [11] is 92 % of control; the T/C under setting [4] was 106 % of control; the T/C under setting [12] was 90 % of control. The T/C under setting [5] is 117 % of control and the T/C under setting [13] is 94 % of control.
`Cn1c(=O)c2c(nc(CCC3CCCC3)n2C)n(C)c1=O`: the T/C by setting is: (dose: 50.0 mg/kg/injection, schedule: Q01DX001 (ip), vehicle: carboxymethylcellulose (CMC)) 92 % of control; (dose: 100.0 mg/kg/injection, schedule: Q01DX001 (ip), vehicle: carboxymethylcellulose (CMC)) 97 % of control; (dose: 200.0 mg/kg/injection, schedule: Q01DX001 (ip), vehicle: carboxymethylcellulose (CMC)) 90 % of control; (dose: 400.0 mg/kg/injection, schedule: Q01DX001 (ip), vehicle: carboxymethylcellulose (CMC)) 97 % of control.
With `Cc1cc(NC(=O)Nc2ccc(C3=NCCN3)cc2)ccc1NC(=O)Nc1ccc(C2=NCCN2)cc1`, the T/C is, setting by setting: (dose: 62.0 mg/kg/injection, schedule: Q01DX Z (ip), vehicle: carboxymethylcellulose (CMC)) 124 % of control; (dose: 250.0 mg/kg/injection, schedule: Q01DX Z (ip), vehicle: carboxymethylcellulose (CMC)) 151 % of control.
`Cc1c(Cl)cccc1NC(=O)Nc1ccccc1F`: the T/C reads like this: under setting [1], 91 % of control; under setting [14], 97 % of control; under setting [2], 106 % of control; under setting [15], 97 % of control; under setting [3], 96 % of control; under setting [16], 94 % of control.

The values above are taken from PubChem BioAssay AID248 (DTP/NCI, 2004).
